Reference: patent US20160038468A1 (priority 2013, published 2016)
≈ marks a conversion by molar mass, not a printed value. Like-named read-outs stand apart in the source and are kept apart here.

How the values were obtained:
Type in all cases: cell-based
Mobiluncus all species = experiment: Agar dilution MIC (CLSI), Mobiluncus all species
[1] = test system: Megasphaera-like bacteria; experiment: Agar dilution MIC (CLSI), Megasphaera-like bacteria vaginal isolates; conditions: for MIC: read-out: Minimal Inhibitory Concentration (MIC); for Number of strains with indicated MIC: 25 samples
Prevotella bivia = experiment: Agar dilution MIC (CLSI), Prevotella bivia vaginal isolates; conditions: for MIC: Prevotella bivia, read-out: Minimal Inhibitory Concentration (MIC)

CO[C@H]1/C=C/O[C@@]2(C)Oc3c(C)c(O)c4c(O)c(c5c(nc6cc(C)ccn65)c4c3C2=O)NC(=O)/C(C)=C\C=C\[C@H](C)[C@H](O)[C@@H](C)[C@@H](O)[C@@H](C)[C@H](OC(C)=O)[C@@H]1C [Rifaximin] was tested, and the “activity on Mobiluncus species” value (Mobiluncus all species) was “had activity”, the MIC50 (Mobiluncus all species; # tested 40) was 0.0075 µg/mL (≈ 0.00954 µM) and the MIC90 (Mobiluncus all species; # tested 40) was 0.015 µg/mL (≈ 0.0191 µM). For the same compound, the “MIC Range” value (Mobiluncus all species; # tested 40) was 0.0075 to 0.03 µg/mL, the Susceptible (Mobiluncus all species; number (%) of isolates, # tested 40) was 40 (100) μg/ml and the MIC ([1]; 427510 h, isolate 427507 H) was 0.015 µg/mL (≈ 0.0191 µM). For the same compound, the MIC50 ([1]; # tested 25) was 0.015 µg/mL (≈ 0.0191 µM), the MIC90 ([1]; # tested 25) was 0.015 µg/mL (≈ 0.0191 µM) and the “MIC Range” value ([1]; # tested 25) was 0.0075 to 0.015 µg/mL. The “Number of strains with indicated MIC” value ([1]; MIC 0.0075 μg/ml) was 3, the “Number of strains with indicated MIC” value ([1]; MIC 0.015 μg/ml) was 22 and the MIC ([1]; isolate 426749 T) was 0.0075 µg/mL (≈ 0.00954 µM). It also gave an MIC ([1]; isolate 426766 Q) of 0.015 µg/mL (≈ 0.0191 µM), an MIC ([1]; isolate 426788 8a) of 0.015 µg/mL (≈ 0.0191 µM) and an MIC ([1]; isolate 426788 C) of 0.015 µg/mL (≈ 0.0191 µM). It also gave an MIC ([1]; isolate 427470 10) of 0.015 µg/mL (≈ 0.0191 µM), an MIC ([1]; isolate 427490 2u) of 0.015 µg/mL (≈ 0.0191 µM) and an MIC ([1]; isolate 427509 A) of 0.015 µg/mL (≈ 0.0191 µM). It also gave an MIC ([1]; isolate 427522 8) of 0.015 µg/mL (≈ 0.0191 µM), an MIC ([1]; isolate 600770 O) of 0.015 µg/mL (≈ 0.0191 µM) and an MIC ([1]; isolate 600790 N) of 0.015 µg/mL (≈ 0.0191 µM). It also gave an MIC ([1]; isolate 600796 V) of 0.015 µg/mL (≈ 0.0191 µM), an MIC ([1]; isolate 600831 9) of 0.015 µg/mL (≈ 0.0191 µM) and an MIC ([1]; isolate 600837 18) of 0.015 µg/mL (≈ 0.0191 µM). It also gave an MIC ([1]; isolate 600861 P) of 0.015 µg/mL (≈ 0.0191 µM), an MIC ([1]; isolate 602236 E3) of 0.007 µg/mL (≈ 0.00891 µM) and an MIC ([1]; isolate 602241 D) of 0.015 µg/mL (≈ 0.0191 µM). The MIC ([1]; isolate 602241 F) was 0.015 µg/mL (≈ 0.0191 µM), the MIC ([1]; isolate 602270 A) was 0.015 µg/mL (≈ 0.0191 µM) and the MIC ([1]; isolate 602282 I) was 0.015 µg/mL (≈ 0.0191 µM). For the same compound, the MIC ([1]; isolate 602288 16) was 0.015 µg/mL (≈ 0.0191 µM), the MIC ([1]; isolate 602302 22) was 0.015 µg/mL (≈ 0.0191 µM) and the MIC ([1]; isolate 602305 I) was 0.015 µg/mL (≈ 0.0191 µM). The MIC ([1]; isolate 602324 8) was 0.0075 µg/mL (≈ 0.00954 µM), the MIC ([1]; isolate 602672 12A) was 0.015 µg/mL (≈ 0.0191 µM) and the “MIC Range” value (Prevotella bivia; # tested 34) was 0.125 to 1 µg/mL. It also gave an MIC (Prevotella bivia; isolate 601096 25) of 0.125 µg/mL (≈ 0.159 µM), an MIC (Prevotella bivia; isolate 601166 M) of 0.125 µg/mL (≈ 0.159 µM) and an MIC (Prevotella bivia; isolate 601202 21) of 0.5 µg/mL (≈ 0.636 µM). For the same compound, the MIC (Prevotella bivia; isolate 601203 5) was 0.125 µg/mL (≈ 0.159 µM), the MIC (Prevotella bivia; isolate 601209 A1) was 0.125 µg/mL (≈ 0.159 µM) and the MIC (Prevotella bivia; isolate 601212 9) was 0.125 µg/mL (≈ 0.159 µM). The MIC (Prevotella bivia; isolate 601213 9A) was 0.25 µg/mL (≈ 0.318 µM), the MIC (Prevotella bivia; isolate 601214 B) was 0.25 µg/mL (≈ 0.318 µM) and the MIC (Prevotella bivia; isolate 601241 13) was 0.125 µg/mL (≈ 0.159 µM). The MIC (Prevotella bivia; isolate 601243 15) was 0.125 µg/mL (≈ 0.159 µM), the MIC (Prevotella bivia; isolate 601255 10) was 0.25 µg/mL (≈ 0.318 µM) and the MIC (Prevotella bivia; isolate 601261 C) was 0.25 µg/mL (≈ 0.318 µM). It also gave an MIC (Prevotella bivia; isolate 601283 20) of 0.25 µg/mL (≈ 0.318 µM), an MIC (Prevotella bivia; isolate 601285 14) of 0.125 µg/mL (≈ 0.159 µM) and an MIC (Prevotella bivia; isolate 601293 22) of 0.25 µg/mL (≈ 0.318 µM). For the same compound, the MIC (Prevotella bivia; isolate 601305 H) was 0.125 µg/mL (≈ 0.159 µM), the MIC (Prevotella bivia; isolate 601340 31) was 0.25 µg/mL (≈ 0.318 µM) and the MIC (Prevotella bivia; isolate 601355 B) was 1 µg/mL (≈ 1.27 µM). It also gave an MIC (Prevotella bivia; isolate 601367 M) of 0.5 µg/mL (≈ 0.636 µM), an MIC (Prevotella bivia; isolate 601374 A1) of 0.25 µg/mL (≈ 0.318 µM) and an MIC (Prevotella bivia; isolate 601378 B) of 0.25 µg/mL (≈ 0.318 µM). For the same compound, the MIC (Prevotella bivia; isolate 601379 19) was 0.25 µg/mL (≈ 0.318 µM), the MIC (Prevotella bivia; isolate 601388 T) was 0.25 µg/mL (≈ 0.318 µM) and the MIC (Prevotella bivia; isolate 601389 10) was 0.25 µg/mL (≈ 0.318 µM). It also gave an MIC (Prevotella bivia; isolate 601389 J) of 0.25 µg/mL (≈ 0.318 µM), an MIC (Prevotella bivia; isolate 601392 14) of 0.125 µg/mL (≈ 0.159 µM) and an MIC (Prevotella bivia; isolate 601409 V) of 0.25 µg/mL (≈ 0.318 µM). It also gave an MIC (Prevotella bivia; isolate 601410 12) of 0.25 µg/mL (≈ 0.318 µM), an MIC (Prevotella bivia; isolate 601429 1) of 0.25 µg/mL (≈ 0.318 µM) and an MIC (Prevotella bivia; isolate 601433 19) of 0.25 µg/mL (≈ 0.318 µM). It also gave an MIC (Prevotella bivia; isolate 601449 E) of 0.5 µg/mL (≈ 0.636 µM), an MIC (Prevotella bivia; isolate 601453 A) of 0.25 µg/mL (≈ 0.318 µM) and an MIC (Prevotella bivia; isolate 601455 D1) of 0.25 µg/mL (≈ 0.318 µM).
